PubChem BioAssay (NCI)
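The concentration for 50% growth inhibition is given as GI50. TGI marks complete inhibition of growth.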

What was measured:
Experiment in all cases: growth of human tumour cells (NCI), 384-well format
MDA-MB-231 breast = tested on: MDA-MB-231 breast
UACC-257 melanoma = tested on: UACC-257 melanoma
HOP-92 NSCLC = tested on: HOP-92 NSCLC
OVCAR-3 ovarian = tested on: OVCAR-3 ovarian
A549 NSCLC = tested on: A549 NSCLC
BT-549 breast = tested on: BT-549 breast
NCI-H460 NSCLC = tested on: NCI-H460 NSCLC
UO-31 renal = tested on: UO-31 renal
NCI-H23 lung = tested on: NCI-H23 lung
HL-60(TB) leukemia = tested on: HL-60(TB) leukemia
OVCAR-5 ovarian = tested on: OVCAR-5 ovarian
T-47D breast = tested on: T-47D breast
786-0 renal = tested on: 786-0 renal

Row | Structure (SMILES) | GI50 (MDA-MB-231 breast) | TGI (MDA-MB-231 breast) | GI50 (UACC-257 melanoma) | TGI (UACC-257 melanoma) | GI50 (HOP-92 NSCLC) | TGI (HOP-92 NSCLC) | GI50 (OVCAR-3 ovarian) | TGI (OVCAR-3 ovarian) | GI50 (A549 NSCLC) | TGI (A549 NSCLC) | GI50 (BT-549 breast) | TGI (BT-549 breast) | GI50 (NCI-H460 NSCLC) | TGI (NCI-H460 NSCLC) | GI50 (UO-31 renal) | TGI (UO-31 renal) | GI50 (NCI-H23 lung) | TGI (NCI-H23 lung) | GI50 (HL-60(TB) leukemia) | TGI (HL-60(TB) leukemia) | other results
1 | Cn1c(Nc2ccc(C(F)(F)F)cc2)nc2cc(Oc3ccnc(-c4ncc(C(F)(F)F)[nH]4)c3)ccc21 | 0.0367 µM | 1.8 µM | 0.137 µM | 1.51 µM | 0.584 µM | 6 µM | 0.158 µM | 2.46 µM | 0.254 µM | 12.4 µM | 0.182 µM | 11.3 µM | 0.237 µM | 10.3 µM | 0.332 µM | 12.6 µM | 0.179 µM | 2.33 µM | 0.0386 µM | 1.07 µM | GI50 (OVCAR-5 ovarian): 1.43 µM; TGI (OVCAR-5 ovarian): 13.1 µM; GI50 (T-47D breast): 0.274 µM; TGI (T-47D breast): 9.06 µM; GI50 (786-0 renal): 0.615 µM; TGI (786-0 renal): 6.25 µM
2 | CN1CC[C@@H](c2c(O)cc(O)c3c(=O)cc(-c4ccc(C(F)(F)F)cc4Cl)oc23)[C@@H]1CO | 15.9 µM | 29.9 µM | 12.4 µM | 24.9 µM | 12.7 µM | 25.3 µM | 12.7 µM | 25.9 µM | 16.7 µM | 31.7 µM | 14.6 µM | 27.8 µM | 14.5 µM | 28 µM | 10.8 µM | 23.2 µM | 14.9 µM | 28.2 µM | 9.56 µM | 21.9 µM | GI50 (OVCAR-5 ovarian): 16.5 µM; TGI (OVCAR-5 ovarian): 37.3 µM; GI50 (T-47D breast): 13.8 µM; TGI (T-47D breast): 26.8 µM; GI50 (786-0 renal): 13.6 µM; TGI (786-0 renal): 26.7 µM
